Data on 23 molecules can be found in patent publication US11498930B2 (BLUERAY THERAPEUTICS (SHANGHAI) CO., LTD., priority 2018, dated 2022).

Each structure is given as a SMILES string. Read-outs that look alike come from different tables or passages of the source. A value given as a limit tells only on which side of the number the result lay.

Experiment [1] deals with MOLM-13 cells. In words: MOLM-13 cell proliferation experiment. The format is cell-based. Particulars: Homo sapiens. The protocol:
After 3 days, 5 µL of CellTiter-Glo reagent (Promega, ZG7572) was added to each well, and the plates were kept at room temperature in the dark for 10 minutes. The […] was detected by Spectra max i3 (Molecular Devices). The relative growth rate of the treated cells was compared with that of DMSO control.

Experiment [2] deals with SHP2^E76A protein (Homo sapiens (Human), UniProt Q06124, E76A). As to the kind of experiment: SHP2 enzyme activity inhibition experiment. Format: biochemical. An outline of the steps: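 Compounds tested at 10 concentrations in 3-fold serial dilution. IC50 from a four-parameter Hill-slope nonlinear fit of enzyme activity versus concentration.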
Chain of SHP2^E76A protein (Q06124 whole entry E76A): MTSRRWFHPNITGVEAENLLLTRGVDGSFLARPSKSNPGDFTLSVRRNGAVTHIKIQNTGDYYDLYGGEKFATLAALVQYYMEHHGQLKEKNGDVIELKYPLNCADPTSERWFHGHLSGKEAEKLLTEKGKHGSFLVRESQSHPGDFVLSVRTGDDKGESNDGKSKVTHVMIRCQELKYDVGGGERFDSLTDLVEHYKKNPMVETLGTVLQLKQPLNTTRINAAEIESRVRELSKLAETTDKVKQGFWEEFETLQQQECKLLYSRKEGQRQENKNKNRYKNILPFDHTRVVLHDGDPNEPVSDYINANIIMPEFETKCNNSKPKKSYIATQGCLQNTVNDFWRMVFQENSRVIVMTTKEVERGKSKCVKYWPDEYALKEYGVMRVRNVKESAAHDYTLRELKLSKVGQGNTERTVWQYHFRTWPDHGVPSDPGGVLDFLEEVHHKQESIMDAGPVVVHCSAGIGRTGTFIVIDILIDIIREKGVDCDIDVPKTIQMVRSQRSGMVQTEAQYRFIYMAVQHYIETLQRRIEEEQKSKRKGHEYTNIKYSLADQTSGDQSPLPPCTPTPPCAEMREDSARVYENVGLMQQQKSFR
In experiment [3] the test system is phosphorylation level of intracellular protein kinase (ERK) in MOLM13 cells. In words: Phosphorylated protein kinase (p-ERK) cell experiment (AlphaLISA). The format is cell-based. Particulars: Homo sapiens, MOLM-13, MOLM13 cells. For orientation: In Alpha technology, singlet oxygen from a donor bead excites a nearby acceptor bead.
Setting [4] is: MOLM-13, 72 h, MOLM-13 cell proliferation, 3 days, Tables 3.1 and 3.2, read-out: IC50.
The mark [5] stands for this setting: MOLM-13, read-out: MOLM-13 cell proliferation IC50.
Setting [6] is: SHP2 enzyme activity, Tables 1.1 and 1.2, read-out: IC50.
[7] abbreviates: Table 4, read-out: SHP2 enzyme activity IC50.
[8] abbreviates: p-ERK, 2 hours of cell treatment, Tables 2.1 and 2.2, read-out: IC50.

In the case of `C[C@@H]1OCC2(CCN(c3ncc(Sc4ccnc(N)c4Cl)c4nccn34)CC2)[C@@H]1N` [(3S,4S)-8-(8-((2-amino-3-chloropyridin-4-yl)thio)imidazo[1,2-c]pyrimidin-5-yl)-3-methyl-2-oxa-8-azaspiro[4.5]decan-4-amine], the IC50 in experiment [1] (setting [4]) is less than 100 nM; in experiment [1] (setting [5]) it was 76 nM; in experiment [2] (setting [6]) it was less than 100 nM; in experiment [2] (setting [7]) it was 20 nM; in experiment [3] (Table 4, read-out: p-ERK IC50) it was 150 nM; in experiment [3] (setting [8]) it was 100 to 1000 nM.

With `N[C@@H]1COCC12CCN(c1ncc(Sc3ccnc(Cl)c3Cl)c3nccn13)CC2` [(S)-8-(8-((2,3-dichloropyridin-4-yl)thio)imidazo[1,2-c]pyrimidin-5-yl)-2-oxa-8-azaspiro[4.5]decan-4-amine], the IC50 in experiment [1] (setting [4]) is 100 to 1000 nM; in experiment [2] (setting [6]), less than 100 nM; in experiment [3] (setting [8]), 100 to 1000 nM.

For the molecule `N[C@@H]1CCCC12CCN(c1ncc(Sc3ccncc3Cl)c3nccn13)CC2` [(R)-8-(8-((3-chloropyridin-4-yl)thio)imidazo[1,2-c]pyrimidin-5-yl)-8-azaspiro[4.5]decan-1-amine], the IC50 in experiment [1] (setting [4]), in experiment [2] (setting [6]) and in experiment [3] (setting [8]) was 100 to 1000 nM in each case.

Regarding `N[C@@H]1CCCC12CCN(c1ncc(Sc3ccnc4ccccc34)c3nccn13)CC2` [(R)-8-(8-(quinolin-4-ylthio)imidazo[1,2-c]pyrimidin-5-yl)-8-azaspiro[4.5]decan-1-amine], the IC50 in experiment [1] (setting [4]) was less than 100 nM; in experiment [1] (setting [5]), 99 nM; in experiment [2] (setting [6]), less than 100 nM; in experiment [2] (setting [7]), 20 nM; in experiment [3] (Table 4, read-out: p-ERK IC50), 31 nM; in experiment [3] (setting [8]), 100 to 1000 nM.

As for `Nc1nccc(Sc2cnc(N3CCC4(CC3)COC[C@H]4N)n3ccnc23)c1Cl` [(S)-8-(8-((2-amino-3-chloropyridin-4-yl)thio)imidazo[1,2-c]pyrimidin-5-yl)-2-oxa-8-azaspiro[4.5]decan-4-amine], the IC50 in experiment [1] (setting [4]) was 100 to 1000 nM; in experiment [2] (setting [6]), less than 100 nM; in experiment [3] (setting [8]) it was 100 to 1000 nM.

As for `N[C@@H]1CCCC12CCN(c1ncc(Sc3cccc(Cl)c3Cl)c3nccn13)CC2` [(R)-8-(8-((2,3-dichlorophenyl)thio)imidazo[1,2-c]pyrimidin-5-yl)-8-azaspiro[4.5]decan-1-amine], the IC50 in experiment [1] (setting [4]) is 100 to 1000 nM; in experiment [2] (setting [6]) it was less than 100 nM; in experiment [3] (setting [8]), 100 to 1000 nM.

Regarding `CC1C[C@@H](N)C2(CCN(c3ncc(Sc4cccc(Cl)c4Cl)c4nccn34)CC2)C1` (stereo partly drawn) [(1R)-8-(8-((2,3-dichlorophenyl)thio)imidazo[1,2-c]pyrimidin-5-yl)-3-methyl-8-azaspiro[4.5]decan-1-amine], the IC50 was 100 to 1000 nM in experiment [1] (setting [4]); 140 nM in experiment [1] (setting [5]); less than 100 nM in experiment [2] (setting [6]); 11 nM in experiment [2] (setting [7]); 53 nM in experiment [3] (Table 4, read-out: p-ERK IC50); less than 100 nM in experiment [3] (setting [8]).

Regarding `C[C@@H]1OCC2(CCN(c3ncc(Sc4cccc(Cl)c4Cl)c4nncn34)CC2)[C@@H]1N`, the IC50 is 100 to 1000 nM in experiment [1] (setting [4]), less than 100 nM in experiment [2] (setting [6]) and 100 to 1000 nM in experiment [3] (setting [8]).

As for `C[C@@H]1OCC2(CCN(c3ncc(Sc4ccnc(Cl)c4Cl)c4nccn34)CC2)[C@@H]1N` [(3S,4S)-8-(8-((2,3-dichloropyridin-4-yl)thio)imidazo[1,2-c]pyrimidin-5-yl)-3-methyl-2-oxa-8-azaspiro[4.5]decan-4-amine], the IC50 in experiment [1] (setting [4]) is less than 100 nM; in experiment [1] (setting [5]), 38 nM; in experiment [2] (setting [6]), less than 100 nM; in experiment [2] (setting [7]), 5 nM; in experiment [3] (Table 4, read-out: p-ERK IC50) it was 35 nM; in experiment [3] (setting [8]), less than 100 nM.

For `Nc1nccc(Sc2cnc(N3CCC4(CCC[C@H]4N)CC3)n3ccnc23)c1Cl` [(R)-8-(8-((2-amino-3-chloropyridin-4-yl)thio)imidazo[1,2-c]pyrimidin-5-yl)-8-azaspiro[4.5]decan-1-amine], the IC50 is 100 to 1000 nM in experiment [1] (setting [4]); 270 nM in experiment [1] (setting [5]); less than 100 nM in experiment [2] (setting [6]); 20 nM in experiment [2] (setting [7]); 410 nM in experiment [3] (Table 4, read-out: p-ERK IC50); 100 to 1000 nM in experiment [3] (setting [8]).

Take `Nc1cccc(Sc2cnc(N3CCC4(CCC[C@H]4N)CC3)n3cnnc23)c1Cl` [(R)-8-(8-((3-amino-2-chlorophenyl)thio)-[1,2,4]triazolo[4,3-c]pyrimidin-5-yl)-8-azaspiro[4.5]decan-1-amine]: the IC50 in experiment [1] (setting [4]) was 100 to 1000 nM; in experiment [1] (setting [5]) it was 389 nM; in experiment [2] (setting [6]), less than 100 nM; in experiment [2] (setting [7]) it was 25 nM; in experiment [3] (Table 4, read-out: p-ERK IC50), 245 nM; in experiment [3] (setting [8]) it was 100 to 1000 nM.

With `C=CC(=O)Nc1cccc(Sc2cnc(N3CCC4(CCC[C@H]4N)CC3)n3cnnc23)c1Cl` [(R)-N-(3-((5-(1-amino-8-azaspiro[4.5]decan-8-yl)-[1,2,4]triazolo[4,3-c]pyrimidin-8-yl)thio)-2-chlorophenyl)acrylamide], the IC50 in experiment [1] (setting [4]) was 100 to 1000 nM; in experiment [2] (setting [6]), 100 to 1000 nM; in experiment [3] (setting [8]), 1000 to 10000 nM.

`Cc1nc(N)cc(Sc2cnc(N3CCC4(CC3)CO[C@@H](C)[C@H]4N)n3ccnc23)c1Cl` [(3S,4S)-8-(8-((6-amino-3-chloro-2-methyl-pyridin-4-yl)thio)imidazo[1,2-c]pyrimidin-5-yl)-3-methyl-2-oxa-8-azaspiro[4.5]decan-4-amine]: the IC50 in experiment [1] (setting [4]) was less than 100 nM; in experiment [1] (setting [5]), 42 nM; in experiment [2] (setting [6]) it was less than 100 nM; in experiment [2] (setting [7]), 16 nM; in experiment [3] (Table 4, read-out: p-ERK IC50), 43 nM; in experiment [3] (setting [8]), less than 100 nM.

As for `Nc1nccc(Sc2cnc(N3CCC4(CC3)COC[C@H]4N)n3cnnc23)c1Cl` [(S)-8-(8-((2-amino-3-chloropyridin-4-yl)thio)-[1,2,4]triazolo[4,3-c]pyrimidin-5-yl)-2-oxa-8-azaspiro[4.5]decan-4-amine], the IC50 is 1000 to 10000 nM in experiment [1] (setting [4]), 100 to 1000 nM in experiment [2] (setting [6]) and 100 to 1000 nM in experiment [3] (setting [8]).

With `C[C@@H]1OCC2(CCN(c3ncc(Sc4cc(N)ncc4Cl)c4nccn34)CC2)[C@@H]1N` [(3S,4S)-8-(8-((2-amino-5-chloro-pyridin-4-yl)thio)imidazo[1,2-c]pyrimidin-5-yl)-3-methyl-2-oxa-8-azaspiro[4.5]decan-4-amine], the IC50 is 180 nM in experiment [1] (setting [5]); 21 nM in experiment [2] (setting [7]); 94 nM in experiment [3] (Table 4, read-out: p-ERK IC50); less than 100 nM in experiment [3] (setting [8]).

In the case of `N[C@@H]1CCC12CCN(c1ncc(Sc3cccc(Cl)c3Cl)c3nccn13)CC2` [(R)-7-(8-((2,3-dichlorophenyl)thio)imidazo[1,2-c]pyrimidin-5-yl)-7-azaspiro[3.5]nonan-1-amine], the IC50 in experiment [1] (setting [4]), in experiment [2] (setting [6]) and in experiment [3] (setting [8]) was 100 to 1000 nM throughout.

Turning to `C[C@@H]1OCC2(CCN(c3ncc(Sc4ccnc(Cl)c4Cl)c4nncn34)CC2)[C@@H]1N` [(3S,4S)-8-(8-((2,3-dichloropyridin-4-yl)thio)-[1,2,4]triazolo[4,3-c]pyrimidin-5-yl)-3-methyl-2-oxa-8-azaspiro[4.5]decan-4-amine], the IC50 in experiment [1] (setting [5]) was 133 nM; in experiment [2] (setting [6]) it was less than 100 nM; in experiment [2] (setting [7]), 5 nM; in experiment [3] (Table 4, read-out: p-ERK IC50), 161 nM.

On to `CC1(N)CCN(c2ncc(Sc3cccc(Cl)c3Cl)c3nncn23)CC1` [1-(8-((2,3-dichlorophenyl)thio)-[1,2,4]triazolo[4,3-c]pyrimidin-5-yl)-4-methylpiperidin-4-amine], for which the IC50 was in the range of 1000 to 10000 nM in experiment [1] (setting [4]), 100 to 1000 nM in experiment [2] (setting [6]) and 1000 to 10000 nM in experiment [3] (setting [8]).

Consider `Cn1ccc2c(Sc3cnc(N4CCC5(CCC[C@H]5N)CC4)n4ccnc34)ccnc21` [(R)-8-(8-((1-methyl-1H-pyrrolo[2,3-b]pyridin-4-yl)thio)imidazo[1,2-c]pyrimidin-5-yl)-8-azaspiro[4.5]decan-1-amine], for which the IC50 in experiment [1] (setting [4]) was 100 to 1000 nM; in experiment [2] (setting [6]) it was less than 100 nM; in experiment [3] (setting [8]) it was 100 to 1000 nM.

With `Nc1nccc(Sc2cnc(N3CCC4(CCC[C@H]4N)CC3)n3ncnc23)c1Cl` [(R)-8-(8-((2-amino-3-chloropyridin-4-yl)thio)-[1,2,4]triazolo[1,5-c]pyrimidin-5-yl)-8-azaspiro[4.5]decan-1-amine], the IC50 in experiment [1] (setting [4]) lay in the range of 100 to 1000 nM; in experiment [2] (setting [6]), 100 to 1000 nM; in experiment [3] (setting [8]), 1000 to 10000 nM.

In the case of `CC1C[C@@H](N)C2(CCN(c3ncc(Sc4ccnc(Cl)c4Cl)c4nccn34)CC2)C1` (stereo partly drawn) [(1R)-8-(8-((2,3-dichloropyridin-4-yl)thio)imidazo[1,2-c]pyrimidin-5-yl)-3-methyl-8-azaspiro[4.5]decan-1-amine], the IC50 in experiment [1] (setting [4]) was less than 100 nM; in experiment [1] (setting [5]), 28 nM; in experiment [2] (setting [6]) it was less than 100 nM; in experiment [2] (setting [7]), 8 nM; in experiment [3] (Table 4, read-out: p-ERK IC50) it was 34 nM; in experiment [3] (setting [8]), less than 100 nM.

Take `N[C@@H]1CC(F)(F)CC12CCN(c1ncc(Sc3cccc(Cl)c3Cl)c3nccn13)CC2` [(R)-8-(8-((2,3-dichlorophenyl)thio)imidazo[1,2-c]pyrimidin-5-yl)-3,3-difluoro-8-azaspiro[4.5]decan-1-amine]: the IC50 in experiment [1] (setting [4]) is 100 to 1000 nM; in experiment [2] (setting [6]) it was less than 100 nM; in experiment [3] (setting [8]) it was 100 to 1000 nM.

For the molecule `COc1ccccc1Sc1cnc(N2CCC3(CCC[C@H]3N)CC2)n2ccnc12` [(R)-8-(8-((2-methoxyphenyl)thio)imidazo[1,2-c]pyrimidin-5-yl)-8-azaspiro[4.5]decan-1-amine], the IC50 in experiment [1] (setting [4]) was 100 to 1000 nM; in experiment [1] (setting [5]) it was 210 nM; in experiment [2] (setting [6]) it was less than 100 nM; in experiment [2] (setting [7]) it was 83 nM; in experiment [3] (Table 4, read-out: p-ERK IC50), 469 nM; in experiment [3] (setting [8]), 100 to 1000 nM.
